Test results taken from ChEMBL document CHEMBL1150200, “Apotirucallane Triterpenes from Dysoxylum roseum” (1991).
≈ marks a conversion by molar mass, not a printed value.

Tested on: KB
Test: Cytotoxicity against human KB cells
Type: functional
Settings: read-out: ED50 (the source's name)

## CC(C)=CC1C[C@@H]([C@@H]2CC=C3[C@]4(C)C(=O)C[C@@H]5[C@](C)(C=CC(=O)[C@]5(C)CO)[C@H]4CC[C@]32C)CO1 (stereo partly specified) [DYSORONE E]
  EC50: 3.5 µg/mL (≈ 7.5 µM)
